Type in all cases: physicochemical
Data set [1] in a line: Investigation of hygroscopicity (weight change and powder X-ray diffraction after storage in a desiccator). The settings on record: for transformation of crystalline form (powder X-ray diffraction before and after storage): 25° C. in 93% RH for 14 days; for weight change caused by absorption of moisture: 93% RH at 25° C., stored up to 14 days. Here is the method:
The powder X-ray diffraction spectra were measured by means of a Rigaku Corporation's RAD-2B (target: Cu; Voltage: 40 kV; current: 20 mA; scanning speed: 4°/minute; measurement error: 2θ±0.2°).
Form I crystals and Form II crystals of Compound A, approximately 1 g each, were precisely weighed in weighing bottles, which were then kept in a desiccator of 93% RH at 25° C. […] In addition, the powder X-ray diffraction spectra were measured before and after preservation. The results are shown in FIG. 3 (weight change of Form I crystal), FIG. 4 (weight change of Form II crystal), FIG. 5 (powder X-ray diffraction spectrum of Form I crystal), and FIG. 6 (powder X-ray diffraction spectrum of Form II crystal).

Data set [2] can be described thus: Investigation of transformation mediated by solvents (suspension in toluene, crystalline form confirmed by DSC). The settings on record: 50 mg suspended in 1 ml of toluene, stirred overnight. Here is the method:
The differential scanning calorimetry in Example 1 and Example 2 was made by means of a Perkin Elmer DSC7 (temperature-raising rate: 10° C./minute; the range of measurement: 50° C. (constant temperature 1 minute)→180° C.). The differential scanning calorimetry in Experimental Example 4 was made by means of Shimadzu Corporation's DSC-50 (temperature-raising rate: 2° C./minute; the range of measurement: room temperature→220° C.).
The influence of toluene (solvent) on the crystalline form of Compound A was investigated.
Form I crystals and Form II crystals of Compound A, 50 mg each, were weighed and respectively suspended in 1 ml of toluene, and stirred overnight. Thereafter, the crystals were separated by filtration and dried, of which the crystalline form was confirmed by a differential scanning calorimetry.

A short description of data set [3]: Investigation of thermodynamic stability by differential scanning calorimetry. Here is the method: The differential scanning calorimetry in Experimental Example 5 was made by means of a Perkin Elmer DSC7 (for temperature-raising rate of 1° C./minute, the range of measurement: 130° C.→160° C.; and for temperature-raising rate of 2, 5, 7 or 10° C./minute, the range of measurement: 120° C.→170° C.).
The thermodynamic stability of the crystal of Compound A was investigated by differential scanning calorimetry.
The differential scanning calorimetry was carried out at a temperature-raising rate of 1, 2 or 5° C./minute for Form I crystal of Compound A and at 1, 5, 7 or 10° C./minute for Form II crystal. The results are shown in FIG. 7 (a chart of differential scanning calorimetry in Form I crystal), FIG. 8 and FIG. 9 (a chart of differential scanning calorimetry in Form II crystal).

Structures are written as SMILES.

With `Cc1ccc(-c2nc(CCCC[C@H]3CO[C@@](C)(C(=O)O)OC3)c(C)o2)cc1` [Form I crystal, 2-methyl-c-5-[4-[5-methyl-2-(4-methylphenyl)-1,3-oxazol-4-yl]butyl]-1,3-dioxane-r-2-carboxylic acid], in data set [1] (listed as Form I crystals), the “transformation of crystalline form (powder X-ray diffraction before and after storage)” value is “transformation of crystalline form (from Form I to Form II) was recognized”; the “weight change caused by absorption of moisture” value amounted to 2.3%. The “transformation of crystalline form in solvent” value in data set [2] is recorded as “transformed into Form II crystal”. Moreover, the “endothermic peaks in differential scanning calorimetry” value in data set [3] (temperature-raising rate of 1, 2 or 5° C./minute) is “only one endothermic peak”.

For `Cc1ccc(-c2nc(CCCC[C@H]3CO[C@@](C)(C(=O)O)OC3)c(C)o2)cc1` [Form II crystal, 2-methyl-c-5-[4-[5-methyl-2-(4-methylphenyl)-1,3-oxazol-4-yl]butyl]-1,3-dioxane-r-2-carboxylic acid], in data set [1], the “transformation of crystalline form (powder X-ray diffraction before and after storage)” value was “no transformation of crystalline form”; the “weight change caused by absorption of moisture” value is listed as “no change of weight”. Also, the “transformation of crystalline form in solvent” value in data set [2] (listed as form II crystal) is “no transformation of crystalline form occurs”. Moreover, the “peak of Form I crystal in differential scanning calorimetry” value in data set [3] (lower temperature-raising rate: 7° C./minute, 5° C./minute, 1° C./minute) was “a peak resulting from Form I crystal was recognized”. Further, in data set [3] (temperature-raising rate of 10° C./minute), the “peak of Form I crystal in differential scanning calorimetry” value is “no peak of Form I crystal was confirmed”.

For the origin of these results see US20070027198A1, “Crystal of heterocyclic compound” (priority 2003, published 2007).
